Reference: patent US20250235427A1, “5-METHOXY-N,N-[…][…] THE TREATMENT OF SOCIAL/EMOTIONAL […] DETACHMENT” (GH RESEARCH IRELAND LIMITED, priority 2022, published 2025)

Test system: patients with postpartum depression (PPD)
Assay: Clinical trial, inhaled 5-MeO-DMT individualized dosing regimen in postpartum depression (one patient so far)
Protocol: The single-arm, open-label clinical trial will involve 15 adult female patients with clinically diagnosed postpartum depression (PPD).
The second dose (12 mg) will only be administered if: • a. […] The 6 mg dose was safe and well-tolerated according to the investigator, • c. Any psychoactive effects (PsE) of the prior dose have subsided, and • d. Pre-dose vital parameters and forced expiratory volume in one second (FEV1) are in normal range, or if outside of the normal range, are not clinically significant according to the investigator. • 3. Similarly, a third dose (18 mg) will only be administered if: • a. […] The 12 mg dose was safe and well-tolerated according to the investigator, and • c. Any PsE of the prior dose have subsided, and • d. Pre-dose vital parameters and forced expiratory volume in one second (FEV1) are in normal range, or if outside of the normal range, are not clinically significant according to the investigator.
The patients will be assessed for a peak psychedelic experience (based on a patient-scored visual analogue scale, the PE scale), sedation, and other endpoints after dosing. Follow-up visits are planned for Day 1, and Day 7 after the dosing day.

COc1ccc2[nH]cc(CCN(C)C)c2c1 [5-MeO-DMT]
standard criteria for MADRS response (at least 50% improvement) and MADRS remission (total score equal or less than 10): fulfilled
tolerability of the inhalation procedure: well tolerated with no inhalation-related adverse events
MADRS Concentration Difficulties improvement (2 hr, baseline 0): 0
MADRS Concentration Difficulties score (2 hr, baseline 0): 0
MADRS Reduced appetite improvement (2 hr, baseline 0): 0
MADRS Reduced appetite score (2 hr, baseline 0): 0
MADRS Suicidal Thoughts improvement (2 hr, baseline 0): 0
MADRS Suicidal Thoughts score (2 hr, baseline 0): 0
MADRS Inability to Feel improvement (2 hr, baseline 3): 3
MADRS Inability to Feel score (2 hr, baseline 3): 0
MADRS Lassitude improvement (2 hr, baseline 3): 3
MADRS Lassitude score (2 hr, baseline 3): 0
MADRS Pessimistic Thoughts improvement (2 hr, baseline 4): 4
MADRS Pessimistic Thoughts score (2 hr, baseline 4): 0
MADRS Reported sadness improvement (2 hr, baseline 4): 4
MADRS Reported sadness score (2 hr, baseline 4): 0
MADRS Apparent sadness improvement (2 hr, baseline 5): 5
MADRS Apparent sadness score (2 hr, baseline 5): 0
MADRS Inner Tension improvement (2 hr, baseline 5): 5
MADRS Inner Tension score (2 hr, baseline 5): 0
MADRS Reduced Sleep improvement (2 hr, baseline 5): 0
MADRS Reduced Sleep score (2 hr, baseline 5): 5
reported adverse events (cramping left abdominal pain and headache) (Day 0): mild, short-lasting and resolved spontaneously
MADRS Concentration Difficulties improvement (Day 1, baseline 0): 0
MADRS Concentration Difficulties score (Day 1, baseline 0): 0
MADRS Reduced appetite improvement (Day 1, baseline 0): 0
MADRS Reduced appetite score (Day 1, baseline 0): 0
MADRS Suicidal Thoughts improvement (Day 1, baseline 0): 0
MADRS Suicidal Thoughts score (Day 1, baseline 0): 0
BPRS Blunted affect improvement (Day 1, baseline 1): 0
BPRS Blunted affect score (Day 1, baseline 1): 1
BPRS Conceptual disorganization improvement (Day 1, baseline 1): 0
BPRS Conceptual disorganization score (Day 1, baseline 1): 1
BPRS Disorientation improvement (Day 1, baseline 1): 0
BPRS Disorientation score (Day 1, baseline 1): 1
BPRS Grandiosity improvement (Day 1, baseline 1): 0
BPRS Grandiosity score (Day 1, baseline 1): 1
BPRS Hallucinatory behaviour improvement (Day 1, baseline 1): 0
BPRS Hallucinatory behaviour score (Day 1, baseline 1): 1
BPRS Hostility improvement (Day 1, baseline 1): 0
BPRS Hostility score (Day 1, baseline 1): 1
BPRS Mannerisms and Posturing improvement (Day 1, baseline 1): 0
BPRS Mannerisms and Posturing score (Day 1, baseline 1): 1
BPRS Motor retardation improvement (Day 1, baseline 1): 0
BPRS Motor retardation score (Day 1, baseline 1): 1
BPRS Suspiciousness improvement (Day 1, baseline 1): 0
BPRS Suspiciousness score (Day 1, baseline 1): 1
BPRS Uncooperativeness improvement (Day 1, baseline 1): 0
BPRS Uncooperativeness score (Day 1, baseline 1): 1
BPRS Unusual Thought Content improvement (Day 1, baseline 1): 0
BPRS Unusual Thought Content score (Day 1, baseline 1): 1
BPRS Excitement improvement (Day 1, baseline 2): 1
BPRS Excitement score (Day 1, baseline 2): 1
MADRS Inability to Feel improvement (Day 1, baseline 3): 3
MADRS Inability to Feel score (Day 1, baseline 3): 0
MADRS Lassitude improvement (Day 1, baseline 3): 3
MADRS Lassitude score (Day 1, baseline 3): 0
MADRS Pessimistic Thoughts improvement (Day 1, baseline 4): 4
MADRS Pessimistic Thoughts score (Day 1, baseline 4): 0
MADRS Reported sadness improvement (Day 1, baseline 4): 4
MADRS Reported sadness score (Day 1, baseline 4): 0
BPRS Emotional withdrawal improvement (Day 1, baseline 5): 4
BPRS Emotional withdrawal score (Day 1, baseline 5): 1
MADRS Apparent sadness improvement (Day 1, baseline 5): 5
MADRS Apparent sadness score (Day 1, baseline 5): 0
MADRS Inner Tension improvement (Day 1, baseline 5): 5
MADRS Inner Tension score (Day 1, baseline 5): 0
MADRS Reduced Sleep improvement (Day 1, baseline 5): 5
MADRS Reduced Sleep score (Day 1, baseline 5): 0
BPRS Depressive Mood improvement (Day 1, baseline 6): 5
BPRS Depressive Mood score (Day 1, baseline 6): 1
BPRS Guilt feelings improvement (Day 1, baseline 6): 5
BPRS Guilt feelings score (Day 1, baseline 6): 1
BPRS Somatic Concern improvement (Day 1, baseline 6): 5
BPRS Somatic Concern score (Day 1, baseline 6): 1
BPRS Tension improvement (Day 1, baseline 6): 5
BPRS Tension score (Day 1, baseline 6): 1
BPRS Anxiety improvement (Day 1, baseline 7): 6
BPRS Anxiety score (Day 1, baseline 7): 1
BIMF item 2 (I feel rested) score (Day 7, Day 0 score 0): 2
BIMF item 19 (As time goes on, I am getting better at taking care of my baby) score (Day 7, Day 0 score 0): 1
BIMF item 18 (Anxiety or worry often interferes with my mothering ability) score (Day 7, Day 0 score 2): 5
BIMF item 13 (I am taking good care of my physical needs) score (Day 7, Day 0 score 4): 5
BIMF item 4 (My baby and I understand each other) score (Day 7, Day 0 score 5): 5
BIMF item 5 (I am able to relax and enjoy time with my baby) score (Day 7, Day 0 score 5): 6
BIMF item 9 (I am getting enough encouragement from other people) score (Day 7, Day 0 score 5): 6
BIMF item 10 (I trust my own feelings (instincts) when it comes to taking care of my baby) score (Day 7, Day 0 score 5): 6
BIMF item 15 (My baby and I are getting into a routine) score (Day 7, Day 0 score 5): 6
BIMF item 17 (I am able to take care of my baby and my other responsibilities) score (Day 7, Day 0 score 5): 5
BIMF item 1 (I am a good mother) score (Day 7, Day 0 score 6): 6
BIMF item 3 (I am comfortable with the way I've chosen to feed my baby) score (Day 7, Day 0 score 6): 6
BIMF item 6 (There are people in my life that I can trust to care for my baby when I need a break) score (Day 7, Day 0 score 6): 6
BIMF item 8 (I am getting enough adult interaction) score (Day 7, Day 0 score 6): 6
BIMF item 12 (I am taking good care of my baby's physical needs) score (Day 7, Day 0 score 6): 6
BIMF item 14 (I make good decisions about my baby's health and well being) score (Day 7, Day 0 score 6): 6
BIMF item 20 (I am satisfied with the job I am doing as a new mother) score (Day 7, Day 0 score 6): 5
MADRS Concentration Difficulties improvement (Day 7, baseline 0): 0
MADRS Concentration Difficulties score (Day 7, baseline 0): 0
MADRS Reduced appetite improvement (Day 7, baseline 0): 0
MADRS Reduced appetite score (Day 7, baseline 0): 0
MADRS Suicidal Thoughts improvement (Day 7, baseline 0): 0
MADRS Suicidal Thoughts score (Day 7, baseline 0): 0
BPRS Blunted affect improvement (Day 7, baseline 1): 0
BPRS Blunted affect score (Day 7, baseline 1): 1
BPRS Conceptual disorganization improvement (Day 7, baseline 1): 0
BPRS Conceptual disorganization score (Day 7, baseline 1): 1
BPRS Disorientation improvement (Day 7, baseline 1): 0
